Results on 2 molecules are retold here after PMC8213057, “Targeting ALK2: An Open Science Approach to Developing Therapeutics for the Treatment of Diffuse Intrinsic Pontine Glioma” (Journal of Medicinal Chemistry, 2020).

In one test the target is T1, CTK/MATK (Homo sapiens, UniProt P42679).
T1 sequence (P42679 1-507): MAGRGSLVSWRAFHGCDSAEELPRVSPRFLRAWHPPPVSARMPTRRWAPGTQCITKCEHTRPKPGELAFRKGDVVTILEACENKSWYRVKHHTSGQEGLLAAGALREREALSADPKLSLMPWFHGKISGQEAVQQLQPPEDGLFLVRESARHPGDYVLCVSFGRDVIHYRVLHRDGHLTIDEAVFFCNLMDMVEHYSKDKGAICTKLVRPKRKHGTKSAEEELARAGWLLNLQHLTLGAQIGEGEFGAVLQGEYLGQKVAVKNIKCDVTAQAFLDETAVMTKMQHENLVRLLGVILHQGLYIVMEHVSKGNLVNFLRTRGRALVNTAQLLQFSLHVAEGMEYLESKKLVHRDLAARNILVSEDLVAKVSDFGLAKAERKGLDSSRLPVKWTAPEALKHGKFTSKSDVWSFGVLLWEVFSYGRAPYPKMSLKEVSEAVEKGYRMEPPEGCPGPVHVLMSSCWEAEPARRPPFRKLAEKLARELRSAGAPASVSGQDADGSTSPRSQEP
Particulars: 1 μM; Run 1, Run 2.

For the next test, the target named is SGK2 (Homo sapiens, UniProt Q9HBY8). Put plainly: biochemical. Particulars: read-out: % enzyme activity, 1 μM; Run 1, Run 2.
The next test concerns the target T2, YSK4/MAP3K19 (Homo sapiens, UniProt Q56UN5).
T2 sequence (Q56UN5 1-1328): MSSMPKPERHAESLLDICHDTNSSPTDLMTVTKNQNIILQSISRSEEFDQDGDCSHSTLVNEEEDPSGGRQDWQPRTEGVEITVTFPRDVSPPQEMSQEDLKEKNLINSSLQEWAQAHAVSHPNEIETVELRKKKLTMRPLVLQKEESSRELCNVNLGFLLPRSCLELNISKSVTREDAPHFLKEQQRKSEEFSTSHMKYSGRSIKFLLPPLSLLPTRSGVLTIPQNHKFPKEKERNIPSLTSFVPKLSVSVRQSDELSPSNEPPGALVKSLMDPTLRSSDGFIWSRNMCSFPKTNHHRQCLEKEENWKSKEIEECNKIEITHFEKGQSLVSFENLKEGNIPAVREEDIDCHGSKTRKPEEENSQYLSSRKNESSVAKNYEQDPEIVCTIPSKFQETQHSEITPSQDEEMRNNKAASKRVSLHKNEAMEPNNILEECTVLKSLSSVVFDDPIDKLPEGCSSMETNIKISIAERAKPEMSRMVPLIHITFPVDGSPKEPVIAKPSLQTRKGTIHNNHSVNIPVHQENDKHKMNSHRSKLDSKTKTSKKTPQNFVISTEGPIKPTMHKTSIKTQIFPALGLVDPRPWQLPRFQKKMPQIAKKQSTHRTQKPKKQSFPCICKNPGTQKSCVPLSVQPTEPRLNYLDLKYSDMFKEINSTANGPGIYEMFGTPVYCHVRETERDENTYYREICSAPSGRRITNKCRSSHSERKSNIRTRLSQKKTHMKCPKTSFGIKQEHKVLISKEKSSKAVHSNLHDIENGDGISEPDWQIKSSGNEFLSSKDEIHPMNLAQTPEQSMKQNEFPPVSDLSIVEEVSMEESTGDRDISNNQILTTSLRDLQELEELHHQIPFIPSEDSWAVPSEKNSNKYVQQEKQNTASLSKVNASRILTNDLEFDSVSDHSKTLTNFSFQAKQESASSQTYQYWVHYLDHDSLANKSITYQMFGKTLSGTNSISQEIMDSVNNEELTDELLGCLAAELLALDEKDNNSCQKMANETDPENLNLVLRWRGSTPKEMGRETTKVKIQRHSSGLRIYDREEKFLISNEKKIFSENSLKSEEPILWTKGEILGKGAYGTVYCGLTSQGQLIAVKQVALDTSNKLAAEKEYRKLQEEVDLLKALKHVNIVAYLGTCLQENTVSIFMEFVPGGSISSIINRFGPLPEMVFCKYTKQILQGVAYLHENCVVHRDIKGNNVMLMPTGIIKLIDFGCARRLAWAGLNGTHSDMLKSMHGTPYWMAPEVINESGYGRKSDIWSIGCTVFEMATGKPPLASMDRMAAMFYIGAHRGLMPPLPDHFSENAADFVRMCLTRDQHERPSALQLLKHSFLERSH
Particulars: 1 μM; Run 1, Run 2.

The target in a further test is T3, GRK1 (Homo sapiens, UniProt Q15835).
T3 sequence (Q15835 1-563): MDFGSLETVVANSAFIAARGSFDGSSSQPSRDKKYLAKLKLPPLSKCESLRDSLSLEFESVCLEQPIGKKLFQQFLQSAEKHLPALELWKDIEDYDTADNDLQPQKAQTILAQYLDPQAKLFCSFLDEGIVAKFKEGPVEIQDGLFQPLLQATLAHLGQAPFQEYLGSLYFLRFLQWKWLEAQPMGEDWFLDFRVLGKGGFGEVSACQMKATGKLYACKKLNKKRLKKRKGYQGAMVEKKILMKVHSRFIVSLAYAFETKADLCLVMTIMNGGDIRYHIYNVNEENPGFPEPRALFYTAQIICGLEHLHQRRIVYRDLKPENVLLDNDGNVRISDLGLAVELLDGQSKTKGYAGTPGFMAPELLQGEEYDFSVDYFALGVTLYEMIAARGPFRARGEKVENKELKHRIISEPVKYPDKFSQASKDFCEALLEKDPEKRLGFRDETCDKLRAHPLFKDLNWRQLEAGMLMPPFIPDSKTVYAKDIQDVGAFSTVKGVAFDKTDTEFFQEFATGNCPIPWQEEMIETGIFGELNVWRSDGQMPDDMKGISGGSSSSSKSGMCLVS
Put plainly: biochemical. The conditions noted are these: read-out: % enzyme activity, 1 μM; Run 1, Run 2.

Chain of SGK2 (Q9HBY8 whole entry): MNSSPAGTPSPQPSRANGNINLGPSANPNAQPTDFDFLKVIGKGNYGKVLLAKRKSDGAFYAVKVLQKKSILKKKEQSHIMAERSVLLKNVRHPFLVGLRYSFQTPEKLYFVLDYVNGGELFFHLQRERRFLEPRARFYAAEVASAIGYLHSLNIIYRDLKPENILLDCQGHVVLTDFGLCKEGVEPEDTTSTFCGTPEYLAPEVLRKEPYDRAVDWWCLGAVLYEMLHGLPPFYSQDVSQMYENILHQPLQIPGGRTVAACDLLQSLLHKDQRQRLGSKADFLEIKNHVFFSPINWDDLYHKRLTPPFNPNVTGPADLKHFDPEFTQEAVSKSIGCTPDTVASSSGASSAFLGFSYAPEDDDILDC

On to `COc1cc(-c2cncc(-c3ccc(N4C[C@@H](C)N(C)[C@@H](C)C4)cc3)c2C)cc(F)c1C(N)=O` [Compound 26c, 2-Fluoro-6-methoxy-4-(4-methyl-5-(4-((3R,5S)-3,4,5-trimethylpiperazin-1-yl)phenyl)pyridin-3-yl)benzamide], for which the “% enzyme activity” value on CTK/MATK is 98.62%; at YSK4/MAP3K19, 96.61%. Moreover, the remaining activity at 1 µM at SGK2 was found to be 103%; at GRK1 it was 95.3%.

Turning to `COc1cc(-c2cncc(-c3ccc(N4CCN(C)CC4)cc3)c2C)cc(F)c1C(N)=O` [Compound 26a, 2-Fluoro-6-methoxy-4-(4-methyl-5-(4-(4-methylpiperazin-1-yl)phenyl)pyridin-3-yl)benzamide], the “% enzyme activity” value was determined as 94.85% on CTK/MATK and 97.39% at YSK4/MAP3K19. Also, the remaining activity at 1 µM on SGK2 was 102%; on GRK1, 94%.
